US20200298233A1, “MICROFLUIDIC PAPER CHIP FOR DETECTING MICRO-ORGANISM, METHOD FOR PREPARING THE SAME AND METHOD FOR DETECTING MICRO-ORGANISM USING THE SAME” (BIOMAX CO., LTD., priority 2017, published 2020)
“And” between values parts separate entries of the source, which are not always exact repeats. Equal values may be shown once.

Experiments:
[1] = system: Staphylococcus aureus; test: Bacterial lysis efficacy by measuring optical density (OD); assay type: cell-based
[2] = system: Vibrio vulnificus; test: as above
[3] = system: Esherichia coli O157; test: as above; assay type: cell-based, Escherichia coli O157
[4] = system: Listeria monocytogenes; test: as above; assay type: cell-based
[5] = system: Salmonella spp.; test: as above
[6] = system: 5 food risk microorganisms; test: Bacterial lysis efficacy by optical density, overall statements; assay type: cell-based; conditions: detergents at 1%, tables 3 and 4
[7] = system: Escherichia coli; conditions: chromogenic reagent terminal concentration 10 mM, 30 minutes at 37° C.
[8] = system: Listeria monocytogenes; test: Coloring reaction test of chromogenic reagents, 96 well plate; assay type: biochemical; conditions: chromogenic reagent terminal concentration 10 mM, 30 minutes at 37° C.
[9] = system: Vibrio vulnificus; test: as above; assay type: biochemical; conditions: chromogenic reagent terminal concentration 10 mM, 30 minutes at 37° C.
[10] = system: Staphylococcus aureus; test: as above; assay type: biochemical; conditions: chromogenic reagent terminal concentration 10 mM, 30 minutes at 37° C.
[11] = system: Escherichia coli O157; conditions: chromogenic reagent terminal concentration 10 mM, 30 minutes at 37° C.

## CCCCCCCCCCCCCC[N+](C)(C)CCCS(=O)(=O)[O-] [SB3-14]
[1]; Table 7, additives to 1% SB3-14, initial O.D = 1.2274
  Optical density: 0.8154 and 0.8152 and 0.8153
[1]; Table 8, C7BZO concentrations added to 1% SB3-14, initial O.D = 1.1374
  Optical density: 0.8664 and 0.8654 and 0.8652
[1]; detergent 0.1%, initial O.D = 1.1877
  Optical density: 0.9052 and 0.9069 and 0.9087
[1]; detergent 0.5%, initial O.D = 1.1877
  Optical density: 1.1084 and 1.1070 and 1.1092
[1]; detergent 1%, initial O.D = 1.1877
  Optical density: 0.5341 and 0.5322
[1]; detergent 2%, initial O.D = 1.1877
  Optical density: 0.9473 and 0.9470 and 0.9461
[1]; detergent 3%, initial O.D = 1.1877
  Optical density: 1.0432 and 1.0429 and 1.0502
[1]; detergent 5%, initial O.D = 1.1877
  Optical density: 0.8999 and 0.8987 and 0.8865
[2]; Table 7, additives to 1% SB3-14, initial O.D = 0.5670
  Optical density: 0.0800 and 0.0798 and 0.0787
[2]; Table 8, C7BZO concentrations added to 1% SB3-14, initial O.D = 1.0272
  Optical density: 0.2733 and 0.2706 and 0.2737
[2]; detergent 0.1%, initial O.D = 0.6143, listed as SB-14
  Optical density: 0.1924 and 0.1953 and 0.1984
[2]; detergent 0.5%, initial O.D = 0.6143, listed as SB-14
  Optical density: 0.0679 and 0.0739 and 0.0695
[2]; detergent 1%, initial O.D = 0.6143, listed as SB-14
  Optical density: 0.0601 and 0.0595 and 0.0588
[2]; detergent 2%, initial O.D = 0.6143, listed as SB-14
  Optical density: 0.0445 and 0.0393 and 0.0447
[2]; detergent 3%, initial O.D = 0.6143, listed as SB-14
  Optical density: 0.0453 and 0.0547 and 0.0528
[2]; detergent 5%, initial O.D = 0.6143, listed as SB-14
  Optical density: 0.0310 and 0.0329 and 0.0320
[3]; Table 7, additives to 1% SB3-14, initial O.D = 1.0911
  Optical density: 0.1112 and 0.1137 and 0.1126
[3]; Table 8, C7BZO concentrations added to 1% SB3-14, initial O.D = 1.0829
  Optical density: 0.1264 and 0.1254 and 0.1241
[3]; detergent 0.1%, initial O.D = 0.8139
  Optical density: 0.4641 and 0.4483 and 0.4351
[3]; detergent 0.5%, initial O.D = 0.8139
  Optical density: 0.2262 and 0.2254 and 0.2230
[3]; detergent 1%, initial O.D = 0.8139
  Optical density: 0.0270 and 0.0238 and 0.0244
[3]; detergent 2%, initial O.D = 0.8139
  Optical density: 0.4447 and 0.4452 and 0.4459
[3]; detergent 3%, initial O.D = 0.8139
  Optical density: 0.6228 and 0.6275 and 0.6225
[3]; detergent 5%, initial O.D = 0.8139
  Optical density: 0.6731 and 0.6746 and 0.6733
[4]; Table 7, additives to 1% SB3-14, initial O.D = 1.2010
  Optical density: 0.6579 and 0.6484 and 0.6514
[4]; Table 8, C7BZO concentrations added to 1% SB3-14, initial O.D = 1.1086
  Optical density: 0.7673 and 0.7609 and 0.7595
[4]; detergent 0.1%, initial O.D = 0.8336
  Optical density: 0.9540 and 0.9653 and 0.9757
[4]; detergent 0.5%, initial O.D = 0.8336
  Optical density: 0.8154 and 0.8244 and 0.8145
[4]; detergent 1%, initial O.D = 0.8336
  Optical density: 0.5993 and 0.5050 and 0.5950
[4]; detergent 2%, initial O.D = 0.8336
  Optical density: 0.9852 and 0.9975 and 0.9807
[4]; detergent 3%, initial O.D = 0.8336
  Optical density: 0.7006 and 0.6813 and 0.6884
[4]; detergent 5%, initial O.D = 0.8336
  Optical density: 0.7960 and 0.7828 and 0.7815
[5]; Table 7, additives to 1% SB3-14, initial O.D = 1.0894
  Optical density: 0.3597 and 0.3519 and 0.3447
[5]; Table 8, C7BZO concentrations added to 1% SB3-14, initial O.D = 1.3421
  Optical density: 0.3640 and 0.3631 and 0.3627
[5]; detergent 0.1%, initial O.D = 1.4448
  Optical density: 0.5393 and 0.5423 and 0.5520
[5]; detergent 0.5%, initial O.D = 1.4448
  Optical density: 0.5807 and 0.5788 and 0.5796
[5]; detergent 1%, initial O.D = 1.4448
  Optical density: 0.4105 and 0.4095
[5]; detergent 2%, initial O.D = 1.4448
  Optical density: 0.5727 and 0.5754 and 0.5776
[5]; detergent 3%, initial O.D = 1.4448
  Optical density: 0.5196 and 0.5221
[5]; detergent 5%, initial O.D = 1.4448
  Optical density: 0.4419 and 0.4454 and 0.4443
[6]
  bacterial lysis efficacy: best bacterial lysis efficacy

## O.O.O.O=C([O-])[C@H]1O[C@@H](Oc2c[nH]c3ccc(Br)c(Cl)c23)[C@H](O)[C@@H](O)[C@@H]1O.[Na+] [X-beta-glucuronide, 5-Bromo-4-chloro-3-indoxyl-beta-D-glucuronic acid Sodium salt trihydrate]
[7]
  coloring reaction: unique coloring reaction

## Aldol ® 518 myo-inositol-1-phosphate [Aldol-myo-inositol-1-phosphate]
[8]
  coloring reaction: unique coloring reaction

## 5-Bromo-6-chloro-3-indoxyl-beta-D-galactopyranoside [Magenta-beta-galactopyranoside]
[9]
  coloring reaction: unique coloring reaction
[10]
  coloring reaction: unique coloring reaction
[11]
  coloring reaction: unique coloring reaction
